{"source": "paper PMC6271893", "about": "“In Vitro Antioxidant and Cytotoxic Activity of Some Synthetic Riparin-Derived Compounds” (Molecules, 2014)", "key": {"[1]": {"system": "larynx carcinoma cell line HEP-2", "design": "method as in PMID 23569415", "details": "cited from earlier work"}, "[2]": {"test": "Scavenging activity of nitric oxide (nitrite production induced by SNP, Griess reaction)", "experimental": "(§1) For the in vitro antioxidant tests the samples were emulsified in 0.05% Tween 80 dissolved in saline 0.9% (used as the vehicle) and tested at concentrations of 1, 5, 10, 25 and 100 µg/mL. The samples for the cytotoxicity tests were diluted in pure and sterile DMSO and tested at concentrations of 25 µg/mL.\nNitric oxide was generated from spontaneous decomposition of sodium nitroprusside in 20 mM phosphate buffer (pH 7.4). Once generated, NO interacts with oxygen to produce nitrite ions, which are measured by the Griess reaction. The reaction mixture (1 mL) containing 10 mM sodium nitroprusside (SNP) in phosphate buffer and the riparins at various concentrations of 1, 5, 10, 25 and 100 µg/mL were incubated at 37 °C for 1 h. A 0.5 mL aliquot was taken and homogenized with 0.5 mL Griess reagent. The absorbance of chromophore was measured at 540 nm. Percent inhibition of generated nitric oxide was measured by comparing the absorbance values of negative controls (only 10 mM sodium nitroprusside and vehicle) to assay preparations. Results were expressed as percentage of nitrite formed by SNP alone."}, "[3]": {"test": "Antioxidant potential against the formation of TBARS (AAPH-induced lipid peroxidation of egg yolk homogenate)", "experimental": "as §1\nThe TBARS assay was employed to quantify lipid peroxidation and an adapted TBARS method was used to measure the antioxidant capacity of the riparins (Rip-A, -B, -C, -D, -E and -F) using egg yolk homogenate as lipid rich substrate. Egg yolk was homogenized (1% w/v) in 20 mM phosphate buffer (pH 7.4), 1 mL of homogenate was sonicated and then homogenized with 0.1 mL of the samples at concentrations of 1, 5, 10, 25 and 100 µg/mL. Lipid peroxidation was induced by the addition of 0.1 mL of 2,2'-azobis(2-methylpropionamidine) dihydrochloride solution (AAPH; 0.12 M). Control was evaluated with only the vehicle. Reactions were carried out for 15 minutes at 37 °C. After cooling, samples (0.5 mL) were centrifuged with 0.5 mL of trichloroacetic acid (15%) at 1,200 ×g for 10 min. An aliquot of 0.5 mL from supernatant was mixed with 0.5 mL TBA (0.67%) and heated at 95 °C for 30 min. After cooling, sample absorbance was measured using a spectrophotometer at 532 nm. The results were expressed as percentage of TBARS formed by AAPH alone (induced control)."}, "[4]": {"test": "Hydroxyl radical scavenging activity (2-deoxyribose degradation, Fenton reaction)", "experimental": "as §1\nThe formation of OH radicals from Fenton reagents was quantified using the condensation product of the 2-deoxyribose oxidative degradation product, malonaldehyde, with 2-thiobarbituric acid (TBA). Briefly, typical reactions were started by the addition of Fe^2+ (FeSO4 6 mM final concentration) to solutions containing 5 mM 2-deoxyribose, 100 mM H2O2 and 20 mM phosphate buffer (pH 7.2). In order to determine the antioxidant activity of the riparins against the hydroxyl radical, individual tests were performed on each one of the six substances, in which different concentrations of the riparins were added to the system before Fe^2+ addition (Rip-A; Rip-B; Rip-C; Rip-D; Rip-E and Rip-F). Reactions were carried out for 15 min at room temperature and were quenched by the addition of phosphoric acid 4% (v/v), followed by TBA 1% (thiobarbituric acid, v/v in 50 μL NaOH). The solutions were boiled for 15 min to 95 °C and then cooled at room temperature. The absorbance was measured at 532 nm and the results were expressed as MDA equivalents formed by Fe^2+ and H2O2 [25]."}, "[5]": {"system": "NCIH-292 (lung carcinoma)", "test": "Cytotoxicity against tumor cell lines (MTT)", "assay_type": "cell-based", "details": "Homo sapiens, NCI-H292, 72 h, 95% confidence interval in brackets, read-out: IC50 values and confidence intervals, NCIH-292", "experimental": "(§2) Cells were maintained at 37 °C with 5% CO2 in RPMI 1640 (Himedia^TM, Mumbai, India) or DMEM medium (Gibco^TM, Grand Island, NY, USA) supplemented with 2 mM glutamine, 100 U/mL penicillin, 100 μg/mL streptomycin. The antiproliferative activities of riparins were evaluated in the following human cancer cells lineage: HL-60 (pro-myelocytic leukemia), NCIH-292 (lung carcinoma), and HEP-2 (laryngeal carcinoma) obtained from the Rio de Janeiro Cell Bank (RJ-Brazil). For all experiments, 100 µL of tumor cells were plated in 96-well plates (6 × 10^4 cells/cm^2 for adherent cells or 9 × 10^4 cells/cm^2 for leukemia). Tested compounds (0.1–25 μg/mL) dissolved in 1% DMSO (100 µL) were added to each well and incubated for 72 h. Control groups received the same amount of DMSO. After 69 h of treatment, 25 μL of MTT (5 mg/mL) were added. Three hours later, the MTT formazan product was dissolved in 100 μL of DMSO, and absorbance was measured at 595 nm using a multiplate reader (Thermo Plate®, TP Reader, São Paulo, SP, Brasil).\n(§3) The obtained data were evaluated by one-way analysis of variance (ANOVA) followed by a Student Newman Keuls post hoc test. The data concerning release percentage of cytoplasmatic enzyme lactate dehydrogenase (LDH) were reported by mean ± standard deviation and evaluated by one-way analysis of variance (ANOVA) followed by a Tukey post hoc test. In all cases differences were considered significant if p < 0.05, the means and respective standard errors were analyzed in the Graph Pad Prism version 5.0 for Windows software (GraphPad Software Incorporated, San Diego, CA, USA)."}, "[6]": {"system": "HL-60 (pro-myelocytic leukemia)", "test": "Cytotoxicity against tumor cell lines (MTT)", "assay_type": "cell-based", "details": "Homo sapiens, 72 h, 95% confidence interval in brackets, read-out: IC50 values and confidence intervals, HL-60", "experimental": "as §2, §3"}, "[7]": {"system": "HEP-2 (laryngeal carcinoma)", "test": "Cytotoxicity against tumor cell lines (MTT)", "assay_type": "cell-based", "details": "Homo sapiens, 72 h, 95% confidence interval in brackets, read-out: IC50 values and confidence intervals, HEP-2", "experimental": "as §2, §3"}, "[8]": {"system": "tumor cells lines (leukemia and lung and laryngeal carcinoma)", "test": "Cytotoxicity on tumor cell lines, summary statements over the lines (MTT)", "assay_type": "cell-based", "details": "Homo sapiens", "experimental": "as §1, §2"}, "[9]": {"system": "murine peritoneal macrophages RAW 264.7", "test": "Cytotoxicity assay on RAW 264.7 (LDH release)", "assay_type": "cell-based", "details": "25 µg/mL, RAW 264.7", "experimental": "Murine peritoneal macrophages of the cell line RAW 264.7 were obtained from the American Type Culture Collection (ATCC, Rockville, MD, USA), and cultured at 37 °C with CO2 at 5% in DMEM-F12 supplemented with 10% fetal bovine serum (FBS; Hyclone^TM, Logan, UT, USA) and gentamicin (50 μg/mL). RAW 264.7 cells (5 × 10^5 cells/mL) were cultured and incubated for 24 h with the riparins A, B, C, D, E and F at the final concentration of 25 µg/mL […]. The cytotoxicity assay was performed by LDH assay. The release of LDH (cytoplasmic lactate dehydrogenase enzyme) was determined using 50 μL of culture supernatant with 100 μL of LDH substrate plus and 5 μL ferric alum (5 mg/mL), at 37 °C for 3 min. Then, 100 μL of the NAD solution and phenazine methosulphate were added to the mixture, maintaining the temperature at 37 °C for 5 min (Labrax Commercial Kit, Clontech, Palo Alto, CA, USA). LDH is an oxidoreductase which catalyzes the interconversion of lactate and pyruvate and, for being a stable cytosolic enzyme, after damage to cell membrane it is released in the cellular environment and because of this LDH is an indirect indicator of cytotoxicity. LDH concentration was determined by colorimetry at 492 nm. The specific release of LDH was calculated as percentage of the controls (not treated cells as negative control and cells treated with 1%Triton X-100 as positive control).\nas §3"}}, "note": "Marks after values point to notes of the source that are not given here.", "data": [{"molecule": "CC[C@H]1CC2CN3CCc4c([nH]c5ccc(OC)cc45)[C@](C(=O)OC)(C2)[C@H]13", "note": "(stereo in doubt) [voacangine]", "values": [{"measurement": "IC50 on HEP-2", "setting": "[1]", "value": 159.33, "unit": "µg/mL"}]}, {"molecule": "CC[C@H]1C[C@@H]2CN3CCc4c([nH]c5ccccc45)[C@](C(=O)OC)(C2)[C@H]13", "note": "[Coronaridine, coronaridine]", "values": [{"measurement": "IC50 on HEP-2", "setting": "[1]", "value": 54.47, "unit": "µg/mL"}]}, {"molecule": "COc1ccc(CCNC(=O)c2c(O)cccc2O)cc1OC", "note": "[Rip-F, N-[2-(3,4-Dimethoxyphenyl)ethyl]-2,6-dihydroxybenzamide]", "values": [{"measurement": "Nitrite Production (% induced by SNP)", "setting": "[2]; 1 μg/mL", "value": "74.9 ± 2.27 ^a %"}, {"measurement": "Nitrite Production (% induced by SNP)", "setting": "[2]; 5 μg/mL", "value": "35.3 ± 0.96 ^a %"}, {"measurement": "Nitrite Production (% induced by SNP)", "setting": "[2]; 10 μg/mL", "value": "21.5 ± 0.98 ^a %"}, {"measurement": "Nitrite Production (% induced by SNP)", "setting": "[2]; 25 μg/mL", "value": "19.9 ± 0.71 ^a %"}, {"measurement": "Nitrite Production (% induced by SNP)", "setting": "[2]; 100 μg/mL", "value": "17.3 ± 0.22 ^a %"}, {"measurement": "IC50 Nitrite", "setting": "[2]; nitrite formation", "value": 0.5817, "unit": "µg/mL"}, {"measurement": "TBARS levels (% AAPH)", "setting": "[3]; 1 μg/mL", "value": "38.8 ± 0.99 ^a %"}, {"measurement": "TBARS levels (% AAPH)", "setting": "[3]; 5 μg/mL", "value": "35.9 ± 0.41 ^a %"}, {"measurement": "TBARS levels (% AAPH)", "setting": "[3]; 10 μg/mL", "value": "35.2 ± 0.44 ^a %"}, {"measurement": "TBARS levels (% AAPH)", "setting": "[3]; 25 μg/mL", "value": "34.6 ± 0.49 ^a %"}, {"measurement": "TBARS levels (% AAPH)", "setting": "[3]; 100 μg/mL", "value": "30.3 ± 0.47 ^a %"}, {"measurement": "IC50 TBARS", "setting": "[3]; TBARS production", "value": 0.6231, "unit": "µg/mL"}, {"measurement": "2-Deoxyribose degradation (%)", "setting": "[4]; 1 μg/mL", "value": "83.3 ± 2.13 ^a %"}, {"measurement": "2-Deoxyribose degradation (%)", "setting": "[4]; 5 μg/mL", "value": "61.5 ± 0.98 ^a %"}, {"measurement": "2-Deoxyribose degradation (%)", "setting": "[4]; 10 μg/mL", "value": "57.6 ± 1.47 ^a %"}, {"measurement": "2-Deoxyribose degradation (%)", "setting": "[4]; 25 μg/mL", "value": "55.1 ± 1.78 ^a %"}, {"measurement": "2-Deoxyribose degradation (%)", "setting": "[4]; 100 μg/mL", "value": "50.9 ± 2.33 ^a %"}, {"measurement": "IC50 OH radical", "setting": "[4]; hydroxyl radical content", "value": 1.016, "unit": "µg/mL"}, {"measurement": "IC50", "setting": "[5]", "value": 10.3, "unit": "µg/mL"}, {"measurement": "IC50", "setting": "[6]", "value": 11.4, "unit": "µg/mL"}, {"measurement": "IC50", "setting": "[7]", "value": 7.8, "unit": "µg/mL"}, {"measurement": "IC50", "setting": "[8]; leukemia and lung and laryngeal carcinoma, read-out: IC50 values on neoplastic cells (range over cell lines)", "value": "1.9 to 11.4", "unit": "µg/mL"}, {"measurement": "inhibition at 25 µg/mL", "setting": "[8]; tumor cells lines, cytotoxicity samples tested at 25 µg/mL, read-out: cell growth inhibition rates", "value": "> 70", "unit": "%"}, {"measurement": "melting point", "value": 167, "unit": "°C"}, {"measurement": "LDH % Release", "setting": "[9]", "value": 91.01, "unit": "%"}, {"measurement": "LDH % Release", "setting": "[9]; listed as riparin F", "value": "greater than 80%"}]}, {"molecule": "heyneanine", "values": [{"measurement": "IC50 on HEP-2", "setting": "[1]", "value": 689.45, "unit": "µg/mL"}]}]}
